Where no end group is shown, it is not given here.
Tests used:
Polα = conditions: cited from earlier work
Excerpt: Because centromeres impose specific challenges for DNA replication machinery, we next sought to address the impact of ERCC6L2 deficiency on the progression of DNA replication. […] However, further analyses, based on EdU incorporation over longer time frames, highlighted differences between the two cell lines. Loss of ERCC6L2 reduced efficiency of EdU incorporation in unperturbed c ...

His-tagged human PCNA [1] = test: PCNA pull-down with biotinylated peptides; assay type: binding; conditions: biotinylated peptide on streptavidin beads; purified His-tagged PCNA, 1 h at 4°C; 50 mM Tris-HCl pH 8, 150 mM NaCl, 1 mM DTT, 0.2% Triton X-; anti-PCNA western blot
Excerpt: (§1) Figure 4 ERCC6L2 contains an atypical PCNA-binding motif (A) ERCC6L2 colocalizes with PCNA at CENP-C-negative foci. U2OS cells transfected with YFP-ERCC6L2 were stained for CENP-C and PCNA after pre-extraction of soluble proteins. ERCC6L2-and PCNA-positive, but CENP-C negative foci (red arrows) are marked in zoomed images. (B) ERCC6L2 colocalizes with RPA at CENP-C-negative foci. U2OS cells transfected with YFP-ERCC6L2 were stained for CENP-C and RPA. ERCC6L2- and RPA-positive, but CENP-C-negative foci (red arrows) are marked in zoomed images. (C) Colocalization of the C-terminal ERCC6L2^701−1561 fragment with endogenous PCNA. (D) PCNA pull-down with biotinylated peptides. Biotinylated PIP-box and APIM motif peptides were bound to streptavidin beads and incubated with recombinant PCNA. Interactions were assayed by western blotting with PCNA antibody. Wild-type ZRANB3 PIP-box peptide (ZRANB3 PIP) was used as a positive control. Mutant ZRANB3 PIP-box peptide (Q519A, F525A, and F526A, ZRANB3 PIP^∗) served as a negative control. […] Interactions were assessed by western blotting against PCNA (shown on the right). […]
Custom synthetic biotinylated peptides were synthetised by Genscript and dissolved in 50 mM Tris-HCl pH 8, 150 mM NaCl. […] Finally, the beads were boiled in the SDS-PAGE loading buffer, and analyzed by anti-PCNA Western blotting (1:1000 dilution).

endogenous PCNA [2] = test: Colocalization of YFP-ERCC6L2 constructs with endogenous PCNA; assay type: cell-based, human; conditions: YFP-tagged, U2OS cells
Excerpt: as §1
U2OS cells (ATCC) were grown in 24 well plates. […] Samples were analyzed by confocal microscopy using Olympus FV1200 or Zeiss 880 Airyscan microscopes, or using EVOS M7000 Imaging System. […]

laser-induced DNA breaks = test: Recruitment to laser-induced DNA breaks; assay type: cell-based, human; conditions: U2OS cells, 405 nm laser, 10 μM BrdU 16 h
Description: U2OS cells were grown in glass-bottomed 24 well plates and transfected with YFP-ERCC6L2 constructs using Lipofectamine 2000 (Life Technologies). Transfected cells were then incubated with 10 μM BrdU for 16 h at 37°C. Laser microirradiation was carried out on an Olympus FV1200 confocal microscope equipped with an environmental chamber. Localised DNA damage was induced in cells showing YFP-tagged protein expression using a 405 nm laser. Recruitment of the proteins was monitored by live cell imaging at 488 nm.

[3] = tested on: single-stranded DNA derived from α-satellite DNA sequence; test: EMSA, single-stranded DNA; assay type: binding; conditions: His-tagged fragment; 2.5 nM labeled substrate; 30 min, room temperature; 50 mM Tris-HCl pH 7.5; 11, 22, 44, 88, 176 nM (legend Figure 1H)
[4] = tested on: double-stranded DNA derived from α-satellite DNA sequence; test: EMSA, double-stranded DNA; assay type: binding; conditions: His-tagged fragment; 2.5 nM labeled substrate; 30 min, room temperature; 50 mM Tris-HCl pH 7.5; 11, 22, 44, 88, 176 nM (legend Figure 1H)
endogenous PCNA [5] = test: Immunoprecipitation of Strep-tagged ERCC6L2 fragment, endogenous PCNA; assay type: binding, human; conditions: 293T cells, Twin-Strep construct, StrepTactin beads, immunoblot
His-tagged human PCNA [6] = test: PCNA pull-down with GST-tagged fragment; assay type: binding; conditions: GST-tagged fragment on GST beads, 1 h at 4°C, 50 mM Tris-HCl pH 8, 150 mM NaCl, 1 mM DTT, 0.2% Triton X-, western blot

## O=C(O)c1ccc2cc(-c3ccc(O)c(C45CC6CC(CC(C6)C4)C5)c3)ccc2c1 [CD437]
Polα
  uncoupling of DNA synthesis: causes uncoupling of leading and lagging strand DNA synthesis

## ERCC6L2^790−811 peptide: atypical ERCC6L2 peptides (residues 790–811) containing the WT sequence (LLQCGFSKLLETKCKAVEDSDG; cysteine pairing not given here; also: biotinylated, position not given here; UniProt Q5T890 790-811, looked up, fragment)
His-tagged human PCNA [1]
  interaction with PCNA, pull-down: comparable to the one observed with the classical PIP-box peptide from ZRANB3

## full-length ERCC6L2: full-length human ERCC6L2, YFP-tagged
Endogenous PCNA [2]
  colocalization with endogenous PCNA: largely absent from PCNA foci in S-phase cells
laser-induced DNA breaks
  mobilization to laser-induced DNA breaks: efficient mobilization

B1: ERCC6L2^1053−1247: purified His-tagged ERCC6L2 fragment containing the VIGS motif (protein, UniProt Q5T890 1053-1247, looked up, fragment)
chain: FSFSKQSHRPRTIRDRTSFSSKLPSHNKKNSTFIPRKPMKCSNEKVVNQEQSYESMDKFLDGVQEVAYIHSNQNVIGSSKAENHMSRWAAHDVFELKQFSQLPANIAVCSSKTYKEKVDADTLPHTKKGQQPSEGSISLPLYISNPVNQKKKKVYHTNQTTFIIGETPKGIRRKQFEEMASYFNSSSVNEFAKHI
modifications: His tag
notes: purified His-tagged ERCC6L2 fragment containing the VIGS motif
[3]
  formation of nucleoprotein complexes with single-stranded DNA (EMSA): formed stable nucleoprotein complexes
[4]
  formation of nucleoprotein complexes with double-stranded DNA (EMSA): formed stable nucleoprotein complexes

B2: ERCC6L2^701−1053: Strep-tagged ERCC6L2 fragment (protein)
chain: QGSCLTKDILEREGQVEAGIMTATTWLKEGPPAHKLEMPRQPDCQECRGTEQAAEPLAKEACDLCSDFSDEEPVGATGIKTAKNKAPDSSKASSSPGQLTLLQCGFSKLLETKCKAVEDSDGNTASDDESSDEQPTCLSTEAKDAGCEKNQDSLGTSKHQKLDNILNPKEKHIFYKSEKILEQNISSKSDEKKIKNTDKHCILQNVTESEDSDVICPTQYTTERFPDNSIRFKPPLEGSEDSETEHTVKTRNNDNSRNTDDKRNGIISKKLSPENTTLKSILKRKGTSDISDESDDIEISSKSRVRKRASSLRFKRIKETKKELHNSPKTMNKTNQVYAANEDHNSQFIDDYS
modifications: left off: Strep tag, end not stated, kept
notes: Strep-tagged ERCC6L2 fragment
Endogenous PCNA [5]
  endogenous PCNA in immunocomplexes: detected

B3: GST-tagged ERCC6L2^753−819: GST-tagged ERCC6L2 fragment (residues 753–819) expressed in E. coli (protein)
chain: AAEPLAKEACDLCSDFSDEEPVGATGIKTAKNKAPDSSKASSSPGQLTLLQCGFSKLLETKCKAVED
modifications: left off: GST, end not stated, kept
notes: GST-tagged ERCC6L2 fragment (residues 753–819) expressed in E. coli
His-tagged human PCNA [6]
  interaction with PCNA, GST pull-down: The interaction with PCNA could be demonstrated
